Laboratory results published in patent US20030083469A1, “Allosteric control of nuclear hormone receptors” (The Salk Institute for Biological Studies, priority 1995, published 2003).

Tests used:
GAL-RXR+T3R LBD = molecular target: T1, GAL-RXR+T3R LBD (Homo sapiens, UniProt P10828+P19793); experiment: Transient transfection analysis of GAL-RXR LBD in the presence of T3R LBD; type: cell-based
T1 construct: human RXRα LBD (Glu 203 - Thr 462); human T3Rβ LBD (Leu 173 - Asp 456); expressed in transfected cells; host or cells: CV-1
T1 sequence (P19793 203-462 limits assumed): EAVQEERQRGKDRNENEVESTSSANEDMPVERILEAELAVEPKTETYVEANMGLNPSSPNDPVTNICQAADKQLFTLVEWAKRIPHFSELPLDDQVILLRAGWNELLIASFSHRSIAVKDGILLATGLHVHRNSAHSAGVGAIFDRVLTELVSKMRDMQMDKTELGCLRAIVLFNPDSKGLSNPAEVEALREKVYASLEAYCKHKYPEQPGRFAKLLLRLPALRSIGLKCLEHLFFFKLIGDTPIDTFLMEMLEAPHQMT
T1 sequence (P10828 178-461 limits assumed): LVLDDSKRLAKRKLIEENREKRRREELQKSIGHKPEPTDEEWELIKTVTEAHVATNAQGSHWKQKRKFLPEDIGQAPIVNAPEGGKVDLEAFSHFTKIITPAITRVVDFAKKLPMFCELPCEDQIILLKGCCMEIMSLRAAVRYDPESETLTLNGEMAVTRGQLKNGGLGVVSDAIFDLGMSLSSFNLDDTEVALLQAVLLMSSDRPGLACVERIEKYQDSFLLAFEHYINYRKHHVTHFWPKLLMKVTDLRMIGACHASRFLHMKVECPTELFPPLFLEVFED
Protocol: One day prior to transfection, cells were plated to 50-80% confluence using phenol-red free DMEM-FBS. Cells were transfected by lipofection using N-{2-(2,3)-dioleoyloxy)propyl-N,N,N-trimethyl ammonium methyl sulfate} according to the manufacturer's instructions (DOTAP, Boehringer Mannheim).
Normalized luciferase activity was determined and plotted as fold-activation relative to untreated cells.

RXR-T3R heterodimer = molecular target: T2, RXR-T3R heterodimer (Homo sapiens, UniProt P19793); experiment: Ligand binding assay with RXR-T3R heterodimer; parameters: species or system human GST-hRXRα, chicken T3Rα1
T2 construct: made in house
T2 sequence (P19793 1-462): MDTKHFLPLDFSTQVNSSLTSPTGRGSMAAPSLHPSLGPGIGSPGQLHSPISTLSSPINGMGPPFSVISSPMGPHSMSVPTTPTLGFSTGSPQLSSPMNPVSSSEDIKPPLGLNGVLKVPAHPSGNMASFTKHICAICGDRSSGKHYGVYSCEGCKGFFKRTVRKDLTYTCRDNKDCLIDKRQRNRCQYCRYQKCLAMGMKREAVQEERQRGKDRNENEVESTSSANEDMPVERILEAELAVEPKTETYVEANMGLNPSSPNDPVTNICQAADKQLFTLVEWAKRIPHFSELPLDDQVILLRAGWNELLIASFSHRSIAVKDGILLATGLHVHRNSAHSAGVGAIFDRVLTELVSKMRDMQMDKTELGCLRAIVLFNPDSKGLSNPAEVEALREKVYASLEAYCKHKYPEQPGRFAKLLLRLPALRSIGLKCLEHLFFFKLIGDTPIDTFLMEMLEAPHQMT
T2 sequence (P04625 1-408 partner): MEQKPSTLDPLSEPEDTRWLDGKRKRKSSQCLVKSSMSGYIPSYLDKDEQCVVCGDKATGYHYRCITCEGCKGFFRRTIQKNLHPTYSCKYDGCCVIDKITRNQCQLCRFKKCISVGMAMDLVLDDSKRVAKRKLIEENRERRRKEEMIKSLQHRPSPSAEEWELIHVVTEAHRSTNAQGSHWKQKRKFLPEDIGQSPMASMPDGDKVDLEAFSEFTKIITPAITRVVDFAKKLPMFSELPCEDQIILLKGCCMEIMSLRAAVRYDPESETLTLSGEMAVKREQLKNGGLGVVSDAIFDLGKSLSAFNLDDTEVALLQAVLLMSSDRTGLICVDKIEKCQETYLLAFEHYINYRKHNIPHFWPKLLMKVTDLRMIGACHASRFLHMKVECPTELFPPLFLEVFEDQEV

GAL-RAR + RXR LBD = molecular target: T3, GAL-RAR + RXR LBD (Homo sapiens, UniProt P19793); experiment: Transient transfection of GAL-RAR chimera with RXR LBD; type: cell-based; details: 100 nM LG69
T3 construct: or the human RXRα LBD (Glu 203 -Thr 462); expressed in transfected cells; host or cells: CV-1
T3 sequence (P19793 203-462): T1 sequence (P19793 203-462 limits assumed)
Protocol: (§1) CV-1 cells were grown in Dulbecco's Modified Eagle's medium supplemented with 10% resin-charcoal stripped (Samuels et al., Endocrinology 105:80-85 (1979)) fetal bovine serum, 50 U/ml penicillin G and 50 μg/ml streptomycin sulfate (DMEM-FBS) at 37° C. in 5% CO2. One day prior to transfection, cells were plated to 50-80% confluence using phenol-red free DMEM-FBS. Cells were transfected by lipofection using N-{2-(2,3)-dioleoyloxy)propyl-N,N,N-trimethyl ammonium methyl sulfate} according to the manufacturer's instructions (DOTAP, Boehringer Mannheim). […] Cells were harvested and assayed for luciferase and β-galactosidase activity. All points were performed in triplicate in each experiment and varied by less than 10%. Each experiment was repeated three or more times with similar results.
(§2) Since RXR serves as a silent partner in the T3R and RAR pathways, it was next investigated whether RXR could serve as an active component in other complexes. To search for such complexes, the LBD of a number of nuclear receptors were fused to the GAL4 DBD, and tested to determine whether the RXR LBD could confer LG69 responsiveness upon these GAL-LBD chimeras. […] Normalized luciferase activity was determined and plotted as fold-activation relative to untreated cells.

[1] = molecular target: T4, GAL chimera containing the LBD of VDR + RXR LBD (Homo sapiens, UniProt P19793); experiment: Transient transfection of GAL-VDR LBD chimera with RXR LBD; type: cell-based; details: 100 nM LG69
T4 construct: or the human RXRα LBD (Glu 203 -Thr 462); expressed in transfected cells; host or cells: CV-1
T4 sequence (P19793 203-462): T1 sequence (P19793 203-462 limits assumed)
Protocol: as §1, §2

GAL-Nurrl + RXR-LBD = molecular target: T5, GAL-Nurrl + RXR-LBD (Homo sapiens, UniProt P19793); experiment: Transient transfection of GAL-Nurrl chimera with RXR LBD; type: cell-based, mouse Nurrl, human RXRα; details: RXR-LBD co-expressed with GAL-Nurrl; 100 nM
T5 construct: or the human RXRα LBD (Glu 203 -Thr 462); expressed in transfected cells; host or cells: CV-1
Protocol: as §1, §2

T5 sequence (Q06219 318-598 partner limits assumed, one chain of several): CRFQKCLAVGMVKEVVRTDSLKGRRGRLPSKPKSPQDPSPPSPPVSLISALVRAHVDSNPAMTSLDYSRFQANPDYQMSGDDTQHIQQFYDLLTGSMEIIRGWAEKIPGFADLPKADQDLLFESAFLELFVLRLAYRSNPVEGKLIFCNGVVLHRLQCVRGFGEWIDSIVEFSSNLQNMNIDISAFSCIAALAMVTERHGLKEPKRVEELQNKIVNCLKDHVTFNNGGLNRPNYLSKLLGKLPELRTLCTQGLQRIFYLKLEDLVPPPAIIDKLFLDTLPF

CC=C(c1ccc(C(=O)O)cc1)c1cc2c(cc1C)C(C)(C)CCC2(C)C [LG69, 4-{1-(3,5,5,8,8-pentamethyl-5,6,7,8-tetrahydro-2-napthalenyl)-1-propenyl}benzoic acid]
activity of T3+LG69 compared with T3 alone (GAL-RXR+T3R LBD; 100 nM T3+100 nM LG69): slightly less activity | fold response to LG69 (GAL-RXR+T3R LBD; GAL-RXR+T3R LBD (unliganded), 100 nM LG69): 57 fold | change in [3H] LG69 binding (RXR-T3R heterodimer; T3R with 1 μM T3 added): strongly diminished | change in [3H] LG69 binding (RXR-T3R heterodimer; unliganded T3R): modest reduction | LG69 responsiveness (GAL-RAR + RXR LBD): not seen | LG69 inducibility [1]: not observed | responsiveness to ligand (GAL-Nurrl + RXR-LBD): strong responsiveness
